This is an account of results in US20140161729A1, “COFLUORONS AND METHODS OF MAKING AND USING THEM” (CORNELL UNIVERSITY, priority 2011, published 2014).

The nature of series [1]: Fluorescence measurements of cofluoron models (linker element monomers and their multimers with boronic acids). The series is classed as physicochemical. Particulars: for fluorescence change on addition to linker element SL1 (2-hydroxy-3-naphthalenecarboxamide) / fluorescence change on addition to linker element SL3 (gallic acid ethanolamide): boronic acid 300 μM; for fluorescence change on addition to linker element SL1 (2-hydroxy-3-naphthalenecarboxamide): SL1 100 μM, FIG. 6A; for fluorescence change on addition to linker element SL3 (gallic acid ethanolamide): SL3 100 μM, FIG. 6B.

Another series relates to human mast cell line. The series is described as follows: Intracellular fluorescence of cofluorons (microscopy under UV excitation). In kind it is cell-based. Particulars: 100 μM (each) cofluoron monomer. On the procedure: Human mast cell β2-tryptase containing cells, grown in standard media, were incubated with 100 μM monomer 1 for 15 minutes at room temperature, followed by the addition of 100 μM monomer 2. Stock concentrations of cofluorons, 50 mM in DMSO, were diluted in media immediately before use. For localization studies, 10.5% PEG and 0.0005% berberine were added to costain mast cell granules. Fluorescent signals were detected using an inverted CKX41 Olympus microscope under UV excitation and an 100× oil immersion lens. Images were recorded using an Olympus DP20 digital camera.

Series [2] in a line: Fluorescence measurements of cofluoron monomers and multimers without target. In kind it is physicochemical. The note with it: for maximum fluorescence emission / wavelength of maximum emission: 100 μM (each), 0.1M phosphate pH 7.4, 100 μM EDTA, excited at 300 nM. On the procedure:
The fluorescence properties of cofluorons were measured in 0.1M HEPES or 0.1M phosphate buffer at pH 7.4 in 96- or 384-well black plates using a Molecular Dynamics SpectraMax M5 plate reader. Cofluoron samples were excited at discrete wavelengths and the fluorescence emission was scanned across a range of wavelengths (between 400 and 750 nm). The fluorescence properties of individual cofluoron monomers, as well as the fluorescent properties of cofluoron multimers formed by association of different combinations of cofluoron monomers, were tested and compared.
Fluorescence emission spectra were recorded for cofluoron monomers T147 and T27F individually at a concentration of 100 μM as well as in combination where each cofluoron monomer was at a concentration of 100 μM, in a 0.1M phosphate buffer at pH 7.4 containing 100 μM EDTA. The samples were excited at 300 nM and fluorescence emissions were measured between 300-750 nm on a Spectramax M5 spectrofluorometer. […] The fluorescence emission was enhanced to 4062 RFU and the emission wavelength shifted to 420 nm when the two cofluoron monomers were combined (See FIG. 19).
FIGS. 21 through 34 show the results of fluorescent measurements on the monomers T27 or T27F containing a dihydroxy moiety and multimers formed by mixing the dihydroxy compound with various monomer binding partners containing a boronic acid. These multimers have increased affinity for human mast cell β2-tryptase as compared to the monomers. The fluorescence properties of cofluorons were measured 0.1M phosphate buffer at pH 7.4 containing either 100 or 200 μM EDTA, in 96- or 384-well black plates using a Molecular Dynamics SpectraMax M5 plate reader. Cofluoron samples were excited at discrete wavelengths and the fluorescence emission was scanned across a range of wavelengths (between 400 and 750 nm).

The target in a further series is Tryptase (Homo sapiens, UniProt P20231). The series is described as follows: Fluorescence of cofluoron pairs in the presence or absence of Tryptase. Particulars: phosphate buffer pH 7.4, 200 mM NaCl, excited at 360 nm. In kind it is binding. On the procedure:
The fluorescence emission measurements on cofluorons binding to the target tryptase were measured in 0.1M HEPES or 0.1M phosphate buffer at pH 7.4 in 96- or 384-well black plates using a Molecular Dynamics SpectraMax M5 plate reader. Cofluoron samples were excited at discrete wavelengths and the fluorescence emission was scanned across a range of wavelengths (between 400 and 750 nm). The fluorescence properties of cofluoron monomers and cofluoron multimers in the presence of 3 μM tryptase as well as in the absence of tryptase were measured and compared.
To test whether the cofluorons retained their fluorescence when binding to the target Tryptase, fluorescence were measured on the cofluoron multimers formed by mixing 6 μM T43 with 6 μM T34, T11, T35, and T37, respectively, in the presence or absence of 5 μM Tryptase, in aqueous 50 μM phosphate buffer (pH 7.4) containing 200 mM NaCl. Excitation was at 360 nm, and the portion of emission containing meaningful signal is between 400 nm and 550 nm.

Series [3] addresses human mast cell β2-tryptase (Homo sapiens, UniProt P20231). As to the kind of experiment: Binding of cofluoron monomers and dimers to tryptase (IC50, affinity). Particulars: 1:1 combination with T27 or T27F.
[4] abbreviates: 100 μM 2-hydroxy-3-naphthalenecarboxamide + 300 μM boronic acid, 0.1M phosphate pH 7.4, 50% DMSO, excited at 350 nm.

Sequence of Tryptase (P20231 31-275): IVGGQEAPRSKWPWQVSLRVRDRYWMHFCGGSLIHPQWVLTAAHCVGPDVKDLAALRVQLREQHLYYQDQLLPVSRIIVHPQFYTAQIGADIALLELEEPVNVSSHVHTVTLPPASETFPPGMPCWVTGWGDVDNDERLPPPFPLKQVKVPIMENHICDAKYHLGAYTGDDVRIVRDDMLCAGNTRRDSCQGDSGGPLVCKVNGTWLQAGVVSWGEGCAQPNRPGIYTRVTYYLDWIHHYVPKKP
Sequence of human mast cell β2-tryptase (P20231 31-275): as above

In the case of `CN(C)c1ccc(B(O)O)cn1` [2-(N,N-dimethylamino)pyridine-5-boronic acid], the “increase in fluorescence emission intensity of 7,8-dihydroxy-4-methylcoumarin on forming oligomer with boronic acid partner” value in series [1] (100 μM 7,8-dihydroxy-4-methylcoumarin + 300 μM boronic acid, 0.1M phosphate pH 7.4, 50% DMSO, excitation 350 nm, emission 520 nm) was “did not provide any enhanced signal”. For the compound `OCc1ccccc1B(O)O` [2-(hydroxymethyl)phenylboronic acid], in series [1] (100 μM methyl 3,4,5-trihydroxybenzoate + 300 μM boronic acid, 0.1M phosphate pH 7.4, 50% DMSO, excited at 350 nm), the “enhancement of fluorescent emission signals at 460 nm over monomer methyl 3,4,5-trihydroxybenzoate” value is “about 7 fold”.

Consider `OB(O)c1ccccc1F` [2-fluorophenylboronic acid], for which the “fluorescent emission intensity at 390 nm, fold higher than 3,4,5-trihydroxybenzamide alone” value in series [1] (multimer with 3,4,5-trihydroxybenzamide, 100 μM each, 0.1M HEPES pH 7.9, 50% DMSO, excited at 340 nm) came out at 10 fold.

In the case of `OB(O)c1cccnc1F` [2-fluoropyridine-3-boronic acid], the “enhancement of fluorescent emission signal at 420 nm over monomer 2-hydroxy-3-naphthalenecarboxamide” value in series [1] (setting [4]) was “more than 80 fold”.

Regarding `NC(=O)c1cc2ccccc2cc1O` [2-hydroxy-3-naphthalenecarboxamide, 2-Hydroxy-3-naphthalenecarboxamide], the fluorescent emission maximum is given as 500 nm in series [1] (2-hydroxy-3-naphthalenecarboxamide 100 μM, alone or with 300 μM boronic acids, 0.1M phosphate pH 7.4, 50% DMSO, excited at 350 nm) and “about 510 nm” in series [1] (2-hydroxy-3-naphthalenecarboxamide alone or with boronic acids, phosphate pH 7.4, absence of DMSO, excited at 350 nm).

Regarding `OB(O)c1cccnc1F` [2b, 2-fluoropyridine-3-boronic acid], in series [1], the “fluorescence change on addition to linker element SL1 (2-hydroxy-3-naphthalenecarboxamide)” value was “stronger fluorescent signal, as well as a fluorescent emission wavelength shift to a lower wavelength” and the “fluorescence change on addition to linker element SL3 (gallic acid ethanolamide)” value (from here on “fluorescence change … (gallic acid ethanolamide)”) is listed as “stronger fluorescent signal, as well as a fluorescent emission wavelength shift to a higher wavelength”. On to `OB(O)c1cc(F)cc(F)c1` [2c, 3,5-difluorophenylboronic acid], for which, in series [1], the “fluorescence change on addition to linker element SL1 (2-hydroxy-3-naphthalenecarboxamide)” value is on record as “stronger fluorescent signal, as well as a fluorescent emission wavelength shift to a lower wavelength” and the “fluorescence change … (gallic acid ethanolamide)” value is “stronger fluorescent signal, as well as a fluorescent emission wavelength shift to a higher wavelength”. For `OB(O)c1cc2ccccc2o1` [2d, benzofuran-2-boronic acid], in series [1], the “fluorescence change on addition to linker element SL1 (2-hydroxy-3-naphthalenecarboxamide)” value is reported as “stronger fluorescent signal, as well as a fluorescent emission wavelength shift to a lower wavelength” and the “fluorescence change … (gallic acid ethanolamide)” value is “stronger fluorescent signal, as well as a fluorescent emission wavelength shift to a higher wavelength”. On to `OB(O)c1cc(F)cc(F)c1` [3,5-difluorophenylboronic acid], for which, in series [1] (setting [4]), the “enhancement of fluorescent emission signal at 420 nm over monomer 2-hydroxy-3-naphthalenecarboxamide” value was “about 40 fold”. Moreover, in series [1] (100 μM 2-hydroxy-3-naphthalenecarboxamide + 300 μM boronic acid, phosphate pH 7.4, absence of DMSO, excited at 350 nm), the “fluorescent signal enhancement of multimer with 2-hydroxy-3-naphthalenecarboxamide” value was 30 fold. Consider `Cl.NCc1cccc(C2CCN(C(=O)/C=C/c3ccc(O)c(O)c3)CC2)c1` [T24, (E)-1-(4-(3-(aminomethyl)phenyl)piperidin-1-yl)-3-(3,4-dihydroxyphenyl)prop-2-en-1-one hydrochloride], for which the “fluorescent staining of cells” value in the series on human mast cell line is reported as “somewhat brighter staining”. Regarding `NCc1ccc(F)c(C2CCN(C(=O)c3cccc4cc(O)c(O)cc34)CC2)c1` [T27F], in series [2], the maximum fluorescence emission is listed as 380 RFU and the “wavelength of maximum emission” value is 520 nm. `NCc1cccc(C2CCN(C(=O)/C=C/c3cccc(B(O)O)c3)CC2)c1` [T34]: on Tryptase (6 μM each), the “fluorescent signal of dimer with T43 in the absence of tryptase” value is recorded as “hardly any fluorescent signal”. At Tryptase (pair with T43, 6 μM each, 5 μM Tryptase), the “fluorescent signal enhancement in the presence of tryptase versus in the absence of tryptase” value amounted to 3 fold. In the case of `NCc1cccc(C2CCN(C(=O)c3cccc4sc(B(O)O)cc34)CC2)c1` [T37], the “fluorescent signal enhancement of multimer formed with T43, among all multimers tested” value in series [2] (100 μM T43 + 100 μM partner, 0.1M phosphate pH 7.4 aqueous, excited at 360 nm) is “strongest fluorescent signal enhancements”. Regarding `NCc1cccc(C2CCN(C(=O)/C=C/c3cc(O)c(O)c(O)c3)CC2)c1` [T43], the emission peak in series [2] (T43 100 μM, alone or with 100 μM boronic acid partners, 0.1M phosphate pH 7.4 aqueous, excited at 360 nm) came to 440 nm. Also, the “fluorescent signal between 400 nm and 550 nm, monomer without boronic acid partner” value at Tryptase (6 μM) is on record as “essentially no fluorescent signal”. Consider `CN(Cc1ccccc1B(O)O)c1ccc(C(=O)N2CCC(c3cccc(CN)c3)CC2)cc1` [T147, (2-(((4-(4-(3-(aminomethyl)phenyl)piperidine-1-carbonyl)phenyl)(methyl)amino)methyl)phenyl)boronic acid], for which, in series [2], the maximum fluorescence emission was 194 RFU and the “wavelength of maximum emission” value was 390 nm. In addition, the “affinity to human β-tryptase of dimer versus monomers” value in series [3] is “higher affinity to human β-tryptase than either monomer”. Turning to `OB(O)c1cc2ccccc2o1` [benzofuran-2-boronic acid], in series [1] (setting [4]), the “enhancement of fluorescent emission signal at 420 nm over monomer 2-hydroxy-3-naphthalenecarboxamide” value was “about 40 fold”.

Turning to `COC(=O)c1cc(O)c(O)c(O)c1` [methyl 3,4,5-trihydroxybenzoate], in series [1] (methyl 3,4,5-trihydroxybenzoate 100 μM, alone or with 300 μM boronic acids, 0.1M phosphate pH 7.4, 50% DMSO, excited at 350 nm), the fluorescent emission peak result is “about 390 nm”.
